Reference: EP1283052A1, “Pharmaceutical composition containing caspase-8 and /or caspase-9 useful for overcoming glucocorticoid- and cancer therapy-induced apoptosis of tumours” (Deutsches Krebsforschungszentrum Stiftung des öffentlichen …, priority 2001, dated 2003)

Test system: caspase-8
Experiment: Fluorometric caspase-8 activity assay in P693 cells
Type: cell-based, human
Details: cisplatin 2 µg/ml alone, Fig. 2b
Protocol: • (a) Left: P5 an CEM cells were treated with cisplatin (1-5 µg/ml) in the absence or presence of DEX (1 µM) as indicated. Proteins were extracted and expression of CD95-L, TRAIL or TNF-α was detected by Western blot analysis. The size of the proteins in kDa is indicated. Right: HeLa and P5 were treated with CD95 agonistic antibody αAPO-1 (CD95, 1 µg/ml), recombinant TRAIL protein (TRAIL, 100 ng/ml) or recombinant TNF-α protein (TNF-α, 100 ng/ml) in the absence (white bars) or presence (black bars) of DEX (1 µM). 24 h later the percentage of apoptosis was determined by annexin-staining and FACS-analysis in untreated (CO) and stimulated cells at the time points indicated. • (b) P693 and CEM cells were treated with cisplatin (2 µg/ml) in the absence or presence of DEX as indicated. 24 and 48 h following treatment cells were lysed and caspase-8 activity was determined by a fluorescent caspase-8 assay and spectroscopy. • (c) P5 cells were stable transfected with empty vector (pcDNA3), or pcDNA3 vector encoding dominant negative FADD protein (FADD-DN). Proteins were extracted from both cell lines and expression of wildtype (WT) and FADD-DN (DN) was detected by Western blot. Left: Stable transfected P5 cells were treated with αAPO-1 (1 µg/ml) and 24 h later apoptosis was determined by staining with annexin/propidium iodide and flow-cytometry. […]

N.N.[Cl][Pt][Cl] [cisplatin]
activity of caspase-8: induced 48 h following treatment
